The values that follow come from patent US5594022A, “Tachykinin antagonists” (Warner-Lambert Company, priority 1994, dated 1997).

Counter-ions that a name gives are not always drawn. Like-named read-outs stand apart in the source and are kept apart here. Where only a bound is given, the exact number is not on record here.

Experiment [1] has as its target T1, NK1 receptor (Guinea Pig Trachea) (Cavia porcellus, UniProt P30547).
T1 construct: Trachea; from tissue; host or cells: guinea pig trachea
Briefly: NK1 antagonist activity, guinea pig trachea. The following applies: read-out: NK1 Antagonist Activity pkB/pA2, Guinea Pig Trachea (converted).

Experiment [2] deals with T2, NK1 receptor (Guinea Pig Ileum) (Cavia porcellus, UniProt P30547).
T2 construct: Ileum; from tissue; host or cells: guinea pig ileum
T2 sequence (P30547 whole entry): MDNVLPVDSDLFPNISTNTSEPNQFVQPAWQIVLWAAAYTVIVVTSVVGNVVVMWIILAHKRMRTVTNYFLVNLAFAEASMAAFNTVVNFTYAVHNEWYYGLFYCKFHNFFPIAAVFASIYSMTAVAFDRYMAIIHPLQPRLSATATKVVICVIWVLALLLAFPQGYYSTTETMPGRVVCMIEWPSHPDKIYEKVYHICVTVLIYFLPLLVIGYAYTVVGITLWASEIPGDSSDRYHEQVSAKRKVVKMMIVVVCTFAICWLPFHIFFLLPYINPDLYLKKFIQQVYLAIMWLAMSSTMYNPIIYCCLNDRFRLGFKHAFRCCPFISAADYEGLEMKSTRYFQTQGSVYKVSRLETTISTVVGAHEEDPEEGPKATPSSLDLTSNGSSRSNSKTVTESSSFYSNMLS
As to the kind of experiment: NK1 antagonist activity, guinea pig ileum. Conditions: read-out: NK1 Antagonist Activity pkB/pA2, Guinea Pig Ileum (converted).

In experiment [3] the target is T3, NK1 receptor (Cavia porcellus, UniProt P30547).
T3 construct: guinea pig cerebral cortex membranes; from tissue; host or cells: guinea pig cerebral cortex membranes
T3 sequence (P30547 whole entry): as above
Briefly: Guinea pig plasma extravasation (antagonism of SPOMe-induced plasma protein extravasation in the bladder). It is filed as in vivo. Conditions: read-out: ID50, Guinea Pig Plasma Extravasation.

Experiment [4] deals with T3, NK1 receptor. Briefly: In vitro NK1 receptor binding ([125I] Bolton Hunter Substance-P, guinea pig cerebral cortex membranes). The following applies: [125I-BH]Substance-P 0.1 nM. The protocol:
The compounds of the invention were also evaluated in three tachykinin binding assays.

The mark [5] stands for this setting: Binding IC50, In Vitro NK1 Receptor Binding.
Setting [6] is: read-out: Binding IC50, In Vitro NK1 Receptor Binding.
Where [7] appears, read: guinea pig bladder, IV, SPOMe-induced.

T1 sequence (P30547 whole entry): as above

For the molecule `C[C@H](NC(=O)[C@@](C)(Cc1c[nH]c2ccccc12)NC(=O)OCc1ccc(F)cc1F)c1ccccc1` [Example 53, (2,4-Difluorophenyl) methyl [R-(R*,S*)]-[1-(1H-indol-3-ylmethyl)-1-methyl-2-oxo-2-[(1-phenylethyl)amino]ethyl]carbamate], the Kb is 7.94 nM in experiment [1] and 2.51 nM in experiment [2]. In addition, the ED50 on NK1 receptor [3] (guinea pig, iv) amounted to 0.071 mg/kg. The same molecule had an IC50 at NK1 receptor [4] (setting [5]) of 39 nM. As to `Cc1ccc(COC(=O)N[C@](C)(Cc2c[nH]c3ccccc23)C(=O)N[C@@H](C)c2ccccc2)cc1` [Example 22], the Kb is 100 nM in experiment [1] and 15.8 nM in experiment [2]. Besides, the ED50 on NK1 receptor [3] (guinea pig, iv) was 0.64 mg/kg. The same molecule displayed an IC50 on NK1 receptor [4] (setting [5]) of 17 nM. Consider `CN(C(=O)OCc1ccccc1)[C@@H](Cc1c[nH]c2ccccc12)C(=O)NCc1ccccc1` [Example 23], for which the 50% inhibitory concentration (IC50) at NK1 receptor [4] (setting [6]) came to 168 nM. In the case of `C[C@H](NC(=O)[C@@](C)(Cc1c[nH]c2ccccc12)NC(=O)OCc1ccsc1)c1ccccc1` [Example 42, 3-Thienylmethyl [R-(R*,S*)]-[(1H-indol-3-ylmethyl) -1-methyl-2-oxo-2-[(1-phenylethyl)amino]ethyl]carbamate], at NK1 receptor [4] (setting [6]), the IC50 amounted to 140 nM. On the same count and under the same terms, for `C[C@H](NC(=O)[C@@H](Cc1c[nH]c2ccccc12)NC(=O)OCc1ccccc1)c1ccccc1` [Example 6] the value was 75 nM. On to `Cc1ccc(C(C)NC(=O)[C@@](C)(Cc2c[nH]c3ccccc23)NC(=O)OCc2ccccc2)cc1` (single isomer, unassigned) [Example 36, Phenylmethyl [1-(1H-indol-3-ylmethyl)-1-methyl-2-[[1-(4-methylphenyl)ethyl]amino]-2-oxoethyl]carbamate], for which the IC50 on NK1 receptor [4] (setting [6]) came to 70 nM. As for `C[C@H](NC(=O)[C@@H](Cc1ccc2ccccc2c1)NC(=O)OCc1ccccc1)c1ccccc1` [Example 58], on NK1 receptor [4] (setting [6]), the IC50 is 1700 nM.

For the molecule `C[C@H](NC(=O)[C@@](C)(Cc1c[nH]c2ccccc12)NC(=O)OCc1cccs1)c1ccccc1` [Example 43, 2-Thienylmethyl [R-(R*,S*)]-[1-(1H-indol-3-ylmethyl) -1-methyl-2-oxo-[(1-phenylethyl)amino]ethyl]carbamate], the IC50 at NK1 receptor [4] (setting [6]) worked out at 100 nM.

With `C[C@H](NC(=O)[C@@](C)(Cc1c[nH]c2ccccc12)NC(=O)OCc1cccc(F)c1F)c1ccccc1` [Example 52, (2,3-Difluorophenyl) methyl [R-(R*,S*)]-[(1H-indol-3-methyl)-1-methyl-2-oxo-[(1-phenylethyl)amino]ethyl]carbamate], the IC50 on NK1 receptor [4] (setting [6]) came out at 49 nM. `C[C@H](NC(=O)C(Cc1c[nH]c2ccc(F)cc12)NC(=O)OCc1ccccc1)c1ccccc1` (stereo partly drawn) [Example 56, Phenylmethyl [R-(R*,S*)]and [S-(R*,R*)]-[1-[(5-fluoro-1H-indol-3-yl)methyl]-2-oxo-2-[(1-phenylethyl)amino]ethyl]carbamate]: the IC50 at NK1 receptor [4] (setting [6]) is 3200 nM.

Take `COc1ccc(C(C)NC(=O)[C@@](C)(Cc2c[nH]c3ccccc23)NC(=O)OCc2ccccc2)cc1` (stereo partly drawn) [Example 40, Phenylmethyl (R,RS)-[1-(1H, indole-3-ylmethyl)-2-[[1-(4-methoxyphenyl)ethyl]amino]-1-methyl-2-oxoethyl]carbamate]: the IC50 at NK1 receptor [4] (setting [6]) was found to be 210 nM.

Take `C[C@H](NC(=O)[C@@](C)(Cc1c[nH]c2ccccc12)NC(=O)OCc1ccc(F)cc1)c1ccccc1` [Example 51, (4-Fluorophenyl) methyl [R-(R*,S*)]-[1-(1H-indol-3-ylmethyl)-1-methyl-2-oxo-2-[(1-phenylethyl)amino]ethyl]carbamate]: at NK1 receptor [4] (setting [6]), the IC50 is 230 nM. In the case of `CN(Cc1ccccc1)C(=O)[C@H](Cc1c[nH]c2ccccc12)NC(=O)OCc1cc2ccccc2o1` [Example 67, Carbamic acid, [1-(1H-indol-3-ylmethyl)-2-[methyl (phenylmethyl)amino]-2-oxoethyl]-, 2-benzofuranylmethyl ester, (S)--], in experiment [2], the Kb is 12.6 nM. The ED50 on NK1 receptor [3] (setting [7]) was determined as 0.91 mg/kg. As for `C[C@H](NC(=O)[C@@](C)(Cc1c[nH]c2ccccc12)NC(=O)OCc1cccc(F)c1)c1ccccc1` [Example 50, (3-Fluorophenyl) methyl [R-(R*,S*)]-[1-(1H-indol-3-ylmethyl)-1-methyl-2-oxo-2-[(1-phenylethyl)amino]ethyl]carbamate], at NK1 receptor [4] (setting [6]), the IC50 came out at 120 nM. Same read-out and setting: with `O=C(N[C@@H](Cc1c[nH]c2ccccc12)C(=O)OCc1cc(C(F)(F)F)cc(C(F)(F)F)c1)OCc1ccccc1` [Example 35, Methyl N-[(phenylmethoxy)carbonyl]-, [3,5-bis(trifluoromethyl)phenyl]-L-tryptophan] the figure was 233 nM; with `Cc1ccc(C(C)NC(=O)[C@@](C)(Cc2c[nH]c3ccccc23)NC(=O)OCc2ccccc2)cc1` (single isomer, unassigned) [Example 37, Phenylmethyl [1-(1H-indol-3-ylmethyl)-1-methyl-2-[[1-(4-methylphenyl)ethyl]amino]-2-oxoethyl]carbamate], 290 nM. Same read-out and setting: for `CC(NC(=O)C(C)(Cc1c[nH]c2ccccc12)NC(=O)OCc1ccccc1)C1CCCCC1` (stereo not drawn) [Example 38, Phenylmethyl [R-(R*,R*)]-(2-[(1-cyclohexyethyl)amino]-1-(1H-indol-3-ylmethyl)-1-methyl-2-oxoethyl]carbamate] the value was 100 nM; for `CN(C(=O)OCc1ccc(Cl)cc1)[C@@H](Cc1c[nH]c2ccccc12)C(=O)NCc1ccccc1` [Example 29], 487 nM. On to `C[C@H](NC(=O)[C@H](Cc1c[nH]c2ccccc12)N(C)C(=O)OCc1ccccc1)c1ccccc1` [Example 24], for which the IC50 at NK1 receptor [4] (setting [6]) came out at 185 nM. For the molecule `C[C@H](NC(=O)C(C)(Cc1csc2ccccc12)NC(=O)OCc1ccccc1)c1ccccc1` (stereo partly drawn) [Example 60, Phenylmethyl [1-(benzo[b]thien-3-ylmethyl)-1-methyl-2-oxo-2-[(1-phenylethyl)amino]ethyl]carbamate], the IC50 on NK1 receptor [4] (setting [6]) is more than 1000 nM. Same read-out and setting: with `CC(NC(=O)[C@@](C)(Cc1c[nH]c2ccccc12)NC(=O)OCc1ccccc1)c1cc(C(F)(F)F)cc(C(F)(F)F)c1` (mixture of isomers) [Example 39, Phenylmethyl (R,RS)-[2-[[1-[3,5-bis(trifluoromethyl) -phenyl]ethyl]amino]-1-(1H-indol-3-ylmethyl)-1-methyl-2-oxoethyl]carbamate] the figure was 10000 nM; with `C[C@H](NC(=O)[C@@](C)(Cc1c[nH]c2ccccc12)NC(=O)OCc1ccncc1)c1ccccc1` [Example 41], more than 10000 nM. As for `C[C@H](NC(=O)[C@@](C)(Cc1c[nH]c2ccccc12)NC(=O)OCc1ccco1)c1ccccc1` (relative stereo) [Example 49, 2-Furanylmethyl [R,(R*,S*)]-[1-(1H-indol-3-ylmethyl) -1-methyl-2-oxo-2-[(1-phenylethyl)amino]ethyl]carbamate], the IC50 on NK1 receptor [4] (setting [6]) was 120 nM.

In the case of `C[C@H](NC(=O)[C@@](C)(Cc1c[nH]c2ccccc12)NC(=O)OCc1cc2ccccc2o1)c1ccncc1` [Example 66, Carbamic acid, [1-(1H-indol-3-ylmethyl)-1-methyl-2-oxo-2-[[1-(4-pyridinyl)ethyl]amino]ethyl]-, 2-benzofuranylmethyl ester, monohydrochloride, [R-(R*,S*)]], on NK1 receptor [3] (setting [7]), the ED50 turned out to be 2.8 mg/kg. Take `C[C@H](NC(=O)[C@@](C)(Cc1c[nH]c2ccccc12)NC(=O)OCc1ccoc1)c1ccccc1` [Example 48, 3- Furanylmethyl [R-(R*,S*)]-[1-(1H-indol-3-ylmethyl) -1-methyl-2-oxo-2-[(1-phenylethyl)amino]ethyl]carbamate]: the IC50 at NK1 receptor [4] (setting [6]) came to 230 nM. As for `C[C@@H](NC(=O)[C@H](Cc1c[nH]c2ccccc12)N(C)C(=O)OCc1ccccc1)c1ccccc1` [Example 27], the IC50 on NK1 receptor [4] (setting [6]) was 306 nM. Same read-out and setting: with `C[C@H](NC(=O)[C@H](Cc1c[nH]c2ccccc12)NC(=O)OCc1ccccc1)c1ccccc1` [Example 7] the figure was 306 nM.

Turning to `C[C@H](NC(=O)C(Cc1n[nH]c2ccccc12)NC(=O)OCc1ccccc1)c1ccccc1` (stereo partly drawn) [Example 55, Phenylmethyl [R-(R*,S*)]and [S-(R*,R*)]-[1-(1H -indazol-3-ylmethyl-)-2-oxo-2-[(1-phenylethyl)amino]ethyl]carbamate], the IC50 on NK1 receptor [4] (setting [6]) was more than 1000 nM. Consider `C[C@H](NC(=O)[C@@](C)(Cc1c[nH]c2ccccc12)NC(=O)OC1CCc2ccccc21)c1ccccc1` (stereo partly drawn) [Example 44, 2,3-Dihydro-1H-inden-3-yl [R-(R*,S*)]-[1(1H-indol-3-ylmethyl)-1-methyl-2-oxo-2-[(phenylethyl)amino]ethyl]carbamate], for which the IC50 at NK1 receptor [4] (setting [6]) came to 110 nM. Still for that read-out and setting: for `CN(Cc1ccccc1)C(=O)C(Cc1c[nH]c2ccccc12)NC(=O)OCc1ccccc1` (stereo not drawn) [Example 1] the value was 341 nM. Same read-out and setting: with `CN(Cc1ccccc1)C(=O)[C@H](Cc1c[nH]c2ccccc12)NC(=O)OCc1ccccc1` [Example 3] the figure was 218 nM; with `CC(NC(=O)C(Cc1cn(C)c2ccccc12)NC(=O)OCc1ccccc1)c1ccccc1` (stereo not drawn) [Example 57, Phenylmethyl [1-(1-methyl-1H-indol-3-ylmethyl]-2-pxp-2-[(1-phenylethyl)amino]ethyl]carbamate], 3400 nM; with `CC(NC(=O)C(Cc1c[nH]c2ccccc12)NC(=O)OCc1ccccc1)c1ccccc1` (stereo not drawn) [Example 4], 198 nM. `C[C@H](NC(=O)[C@](C)(Cc1c[nH]c2ccccc12)NC(=O)OCc1ccccc1)c1ccccc1` [Example 16] had an IC50 on NK1 receptor [4] (setting [5]) of 702 nM.

On to `C[C@H](NC(=O)[C@@](C)(Cc1c[nH]c2ccccc12)NC(=O)OC1Cc2ccccc2C1)c1ccccc1` [Example 46, 2,3-Dihydro-1H-inden-2-yl [1-(1H-indol-3-ylmethyl) -1-methyl-2-oxo-2-[(1-phenylethyl)amino]ethyl]carbamate], for which, on NK1 receptor [4] (setting [6]), the IC50 was determined as 110 nM.

For orientation: IC50 means the concentration at which inhibition is half-maximal.
